According to ChEMBL document CHEMBL6114940, “Exploring the pharmaceutical potential of ammonium organotrifluoroborate functional group: Comprehensive chemical, metabolic, and plasma stability evaluation” (Eur J Med Chem, 2024):

Tests used:
[1] = Stability of compound in 20 mM CH3COONH4 buffer at pH 5.8 assessed as solvolysis constant (K) incubated for 72 hrs by LC-MS analysis; type: physicochemical; set-up: unit not given beside the values; conditions: pH 5.8, 72 h
[2] = Stability of compound in 50 mM Tris-HCL buffer at pH 7.4 assessed as solvolysis constant (K) incubated for 72 hrs by LC-MS analysis; type: physicochemical; conditions: pH 7.4, 72 h
[3] = Stability of compound in 50 mM Tris-HCL buffer at pH 7.4 assessed as half life incubated for 72 hrs by LC-MS analysis; type: physicochemical
[4] = Stability of compound in 0.5 M NaOH assessed as half life incubated for 72 hrs by LC-MS analysis; type: physicochemical
[5] = Stability of compound in 0.5 M NaOH assessed as 4-(boronomethyl)-4-(2-(2-(2-(((2R,3R,4S,5S,6R)-3,4,5-trihydroxy-6-(hydroxymethyl)tetrahydro-2H-pyran-2-yl)oxy)ethoxy)ethoxy)ethyl)morpholin-4-ium formation incubated for 72 hrs by LC-MS analysis; type: physicochemical
[6] = Stability of compound in 50 mM Tris-HCL buffer at pH 7.4 assessed as 4-(boronomethyl)-4-(2-(2-(2-(((2R,3R,4S,5S,6R)-3,4,5-trihydroxy-6-(hydroxymethyl)tetrahydro-2H-pyran-2-yl)oxy)ethoxy)ethoxy)ethyl)morpholin4ium formation incubated for 72 hrs by LC-MS analysis; type: physicochemical; conditions: pH 7.4, 72 h
[7] = Stability in mouse plasma measured after 1 hr by LC-HRMS analysis; type: ADME, cell-free; conditions: read-out: Stability
[8] = Stability of compound in 20 mM CH3COONH4 buffer at pH 5.8 assessed as 4-(boronomethyl)-4-(2-(2-(2-(((2R,3R,4S,5S,6R)-3,4,5-trihydroxy-6-(hydroxymethyl)tetrahydro-2H-pyran-2-yl)oxy)ethoxy)ethoxy)ethyl)morpholin-4-ium formation incubated for 72 hrs by LC-MS analysis; type: physicochemical; conditions: pH 5.8, 72 h
[9] = Stability of compound in 0.3 % H2O2 assessed as (2R,3S,4S,5R,6R)-2-(hydroxymethyl)-6-(2-(2-(2-morpholinoethoxy)ethoxy)ethoxy)tetrahydro-2H-pyran-3,4,5-triol formation incubated for 1 hrs by LC-MS analysis; type: physicochemical
[10] = Stability of compound in 0.9 % saline solution assessed as solvolysis constant (K) incubated for 72 hrs by LC-MS analysis; type: physicochemical; conditions: buffer
[11] = Stability of compound in 0.05 M HCL assessed as 4-(boronomethyl)-4-(2-(2-(2-(((2R,3R,4S,5S,6R)-3,4,5-trihydroxy-6-(hydroxymethyl)tetrahydro-2H-pyran-2-yl)oxy)ethoxy)ethoxy)ethyl)morpholin-4-ium formation incubated for 72 hrs by LC-MS analysis; type: physicochemical; conditions: buffer
[12] = Stability of compound in 0.9 % saline solution assessed as half life incubated for 72 hrs by LC-MS analysis; type: physicochemical
[13] = Stability of compound in 0.05 M HCL assessed as half life incubated for 72 hrs by LC-MS analysis; type: physicochemical
[14] = Stability of compound in 0.5 M NaOH assessed as 4-methyl-4-(2-(2-(2-(((2R,3R,4S,5S,6R)-3,4,5-trihydroxy-6-(hydroxymethyl)tetrahydro-2H-pyran-2-yl)oxy)ethoxy)ethoxy)ethyl)morpholin-4-ium formation incubated for 72 hrs by LC-MS analysis; type: physicochemical
[15] = Stability of compound in 0.9 % saline solution assessed as 4-(boronomethyl)-4-(2-(2-(2-(((2R,3R,4S,5S,6R)-3,4,5-trihydroxy-6-(hydroxymethyl)tetrahydro-2H-pyran-2-yl)oxy)ethoxy)ethoxy)ethyl)morpholin-4-ium formation incubated for 72 hrs by LC-MS analysis; type: physicochemical; conditions: buffer
[16] = Metabolic stability in mouse liver microsomes assessed as drug hydrolysis by measuring 4-(boronomethyl)-4-(2-(2-(2-(((2R,3R,4S,5S,6R)-3,4,5-trihydroxy-6-(hydroxymethyl)tetrahydro-2H-pyran-2-yl)oxy)ethoxy)ethoxy)ethyl)morpholin-4-ium incubated for 1 hrs by LC-MS/MS analysis; type: ADME, Microsome
[17] = Stability of compound in 0.05 M HCL assessed as solvolysis constant (K) incubated for 72 hrs by LC-MS analysis; type: physicochemical; set-up: unit not given beside the values; conditions: buffer
[18] = Stability of compound in 0.5 M NaOH assessed as solvolysis constant (K) incubated for 72 hrs by LC-MS analysis; type: physicochemical; set-up: unit not given beside the values
[19] = Stability of compound in 20 mM CH3COONH4 buffer at pH 5.8 assessed as half life incubated for 72 hrs by LC-MS analysis; type: physicochemical; conditions: 20 mM ammonium acetate (CH3COONH4) buffer
[20] = Metabolic stability in mouse liver microsomes assessed as drug hydrolysis 1-borono-N,N-dimethyl-N-((1-(2-(2-(2-(((2R,3R,4S,5S,6R)-3,4,5-trihydroxy-6-(hydroxymethyl)tetrahydro-2H-pyran-2-yl)oxy)ethoxy)ethoxy)ethyl)-1H-1,2,3-triazol-4-yl)methyl)methanaminium formation incubated for 1 hrs by LC-MS/MS analysis; type: ADME, Microsome
[21] = Stability of compound in 20 mM CH3COONH4 buffer at pH 5.8 assessed as 1-borono-N,N-dimethyl-N-((1-(2-(2-(2-(((2R,3R,4S,5S,6R)-3,4,5-trihydroxy-6-(hydroxymethyl)tetrahydro-2H-pyran-2-yl)oxy)ethoxy)ethoxy)ethyl)-1H-1,2,3-triazol-4-yl)methyl)methanaminium formation incubated for 72 hrs by LC-MS analysis; type: physicochemical; conditions: pH 5.8, 72 h
[22] = Stability of compound in 50 mM Tris-HCL buffer at pH 7.4 assessed as 1-borono-N,N-dimethyl-N-((1-(2-(2-(2-(((2R,3R,4S,5S,6R)-3,4,5-trihydroxy-6-(hydroxymethyl)tetrahydro-2H-pyran-2-yl)oxy)ethoxy)ethoxy)ethyl)-1H-1,2,3-triazol-4-yl)methyl)methanaminium formation incubated for 72 hrs by LC-MS analysis; type: physicochemical; conditions: pH 7.4, 72 h
[23] = Stability of compound in 0.9 % saline solution assessed as 1-borono-N,N-dimethyl-N-((1-(2-(2-(2-(((2R,3R,4S,5S,6R)-3,4,5-trihydroxy-6-(hydroxymethyl)tetrahydro-2H-pyran-2-yl)oxy)ethoxy)ethoxy)ethyl)-1H-1,2,3-triazol-4-yl)methyl)methanaminium formation incubated for 72 hrs by LC-MS analysis; type: physicochemical; conditions: buffer
[24] = Stability of compound in 0.5 M NaOH assessed as 1-borono-N,N-dimethyl-N-((1-(2-(2-(2-(((2R,3R,4S,5S,6R)-3,4,5-trihydroxy-6-(hydroxymethyl)tetrahydro-2H-pyran-2-yl)oxy)ethoxy)ethoxy)ethyl)-1H-1,2,3-triazol-4-yl)methyl)methanaminium formation incubated for 72 hrs by LC-MS analysis; type: physicochemical
[25] = Stability of compound in 0.05 M HCL assessed as 1-borono-N,N-dimethyl-N-((1-(2-(2-(2-(((2R,3R,4S,5S,6R)-3,4,5-trihydroxy-6-(hydroxymethyl)tetrahydro-2H-pyran-2-yl)oxy)ethoxy)ethoxy)ethyl)-1H-1,2,3-triazol-4-yl)methyl)methanaminium formation incubated for 72 hrs by LC-MS analysis; type: physicochemical; conditions: buffer
[26] = Stability of compound in 0.3 % H2O2 assessed as (2R,3R,4S,5S,6R)-2-(2-(2-(2-(4-((dimethylamino)methyl)-1H-1,2,3-triazol-1-yl)ethoxy)ethoxy)ethoxy)-6-(hydroxymethyl)tetrahydro-2H-pyran-3,4,5-triol formation incubated for 1 hrs by LC-MS analysis; type: physicochemical
[27] = Stability of compound in 0.5 M NaOH assessed as N,N,N-trimethyl-1-(1-(2-(2-(2-(((2R,3R,4S,5S,6R)-3,4,5-trihydroxy-6-(hydroxymethyl)tetrahydro-2H-pyran-2-yl)oxy)ethoxy)ethoxy)ethyl)-1H-1,2,3-triazol-4-yl)methanaminium formation incubated for 72 hrs by LC-MS analysis; type: physicochemical
[28] = Stability of compound in 0.5 M NaOH assessed as 1-methyl-1-(2-(2-(2-(((2R,3R,4S,5S,6R)-3,4,5-trihydroxy-6-(hydroxymethyl)tetrahydro-2H-pyran-2-yl)oxy)ethoxy)ethoxy)ethyl)piperidin-1-ium formation incubated for 72 hrs by LC-MS analysis; type: physicochemical
[29] = Metabolic stability in mouse liver microsomes assessed as drug hydrolysis by measuring 1-(boronomethyl)-1-(2-(2-(2-(((2R,3R,4S,5S,6R)-3,4,5-trihydroxy-6-(hydroxymethyl)tetrahydro-2H-pyran-2-yl)oxy)ethoxy)ethoxy)ethyl)piperidin-1-ium formation incubated for 1 hrs by LC-MS/MS analysis; type: ADME, Microsome
[30] = Stability of compound in 0.05 M HCL assessed as 1-(boronomethyl)-1-(2-(2-(2-(((2R,3R,4S,5S,6R)-3,4,5-trihydroxy-6-(hydroxymethyl)tetrahydro-2H-pyran-2-yl)oxy)ethoxy)ethoxy)ethyl)piperidin-1-ium formation incubated for 72 hrs by LC-MS analysis; type: physicochemical; conditions: buffer
[31] = Stability of compound in 0.9 % saline solution assessed as 1-(boronomethyl)-1-(2-(2-(2-(((2R,3R,4S,5S,6R)-3,4,5-trihydroxy-6-(hydroxymethyl)tetrahydro-2H-pyran-2-yl)oxy)ethoxy)ethoxy)ethyl)piperidin-1-ium formation incubated for 72 hrs by LC-MS analysis; type: physicochemical; conditions: buffer
[32] = Stability of compound in 0.3 % H2O2 assessed as (2R,3S,4S,5R,6R)-2-(hydroxymethyl)-6-(2-(2-(2-(piperidin-1-yl)ethoxy)ethoxy)ethoxy)tetrahydro-2H-pyran-3,4,5-triol formation incubated for 1 hrs by LC-MS analysis; type: physicochemical
[33] = Stability of compound in 20 mM CH3COONH4 buffer at pH 5.8 assessed as 1-(boronomethyl)-1-(2-(2-(2-(((2R,3R,4S,5S,6R)-3,4,5-trihydroxy-6-(hydroxymethyl)tetrahydro-2H-pyran-2-yl)oxy)ethoxy)ethoxy)ethyl)piperidin-1-ium formation incubated for 72 hrs by LC-MS analysis; type: physicochemical; conditions: pH 5.8, 72 h
[34] = Stability of compound in 0.5 M NaOH assessed as 1-(boronomethyl)-1-(2-(2-(2-(((2R,3R,4S,5S,6R)-3,4,5-trihydroxy-6-(hydroxymethyl)tetrahydro-2H-pyran-2-yl)oxy)ethoxy)ethoxy)ethyl)piperidin-1-ium formation incubated for 72 hrs by LC-MS analysis; type: physicochemical
[35] = Stability of compound in 50 mM Tris-HCL buffer at pH 7.4 assessed as 1-(boronomethyl)-1-(2-(2-(2-(((2R,3R,4S,5S,6R)-3,4,5-trihydroxy-6-(hydroxymethyl)tetrahydro-2H-pyran-2-yl)oxy)ethoxy)ethoxy)ethyl)piperidin1ium formation incubated for 72 hrs by LC-MS analysis; type: physicochemical; conditions: pH 7.4, 72 h

| K [1] | K [2] | half-life [3] | half-life [4] | remaining at 1 h [7] | K [10] | half-life [12] | half-life [13] | K [17] | K [18] | half-life [19] | Structure (SMILES) | also measured |
| --- | --- | --- | --- | --- | --- | --- | --- | --- | --- | --- | --- | --- |
| 0.021 | 0.068 | 10.1 h | 11.3 h | 2.73% | 0.136 | 5.11 h | 0.301 h | 2.302 | 0.061 | 32.7 h | OC[C@H]1O[C@@H](OCCOCCOCC[N+]2(C[B-](F)(F)F)CCOCC2)[C@H](O)[C@@H](O)[C@@H]1O | Stability [5]: Stable; Stability [6]: Stable; Stability [8]: Stable; Stability [9]: Stable; Stability [11]: Stable; Stability [14]: Stable; Stability [15]: Stable; Drug metabolism [16]: metabolite_detected |
| 0.003 | 0.005 | ≥ 58 h | 36 h | 1.2% | 0.018 | 38.4 h | 1.42 h | 0.489 | 0.019 | ≥ 15.7 h | C[N+](C)(Cc1cn(CCOCCOCCO[C@@H]2O[C@H](CO)[C@@H](O)[C@H](O)[C@H]2O)nn1)C[B-](F)(F)F | Drug metabolism [20]: metabolite_detected; Stability [21]: Stable; Stability [22]: Stable; Stability [23]: Stable; Stability [24]: Stable; Stability [25]: Stable; Stability [26]: Stable; Stability [27]: Stable |
| 0.078 | 0.146 | 4.76 h | 4.95 h | 14.1% | 0.383 | 1.81 h | 0.108 h | 6.439 | 0.14 | 8.82 h | OC[C@H]1O[C@@H](OCCOCCOCC[N+]2(C[B-](F)(F)F)CCCCC2)[C@H](O)[C@@H](O)[C@@H]1O | Stability [28]: Stable; Drug metabolism [29]: metabolite_detected; Stability [30]: Stable; Stability [31]: Stable; Stability [32]: Stable; Stability [33]: Stable; Stability [34]: Stable; Stability [35]: Stable |
